Assay results reported in patent US20230087766A1, “METHODS OF REACTIVATING LATENT HUMAN IMMUNODEFICIENCY VIRUS AND RELATED COMPOSITIONS” (priority 2017, published 2023).

System: latent HIV in resting CD4+ T cells from HIV-infected individuals under ART
Test: Quantitative Viral Outgrowth Assay (QVOA), p24 ELISA
Type: cell-based
Conditions: resting CD4+ T cells from 5 HIV-infected individuals under ART; ex vivo
Description: It was tested whether the histone crotonylation inducer, sodium crotonate, can reactivate latent HIV reservoirs from a patient under ART. Peripheral blood samples were obtained from 5 HIV-infected individuals with undetectable plasma viral loads and higher CD4+ T cell numbers (see Table 1). One million resting CD4+ T cells were treated with IL-2, PHA+IL-2, or IL-2+Na-Cro, and HIV p24 production was measured by QVOA using p24 ELISA as a measure of HIV reactivation.
Quantitative Viral Outgrowth Assay: Peripheral blood mononuclear cells (PBMC) were obtained from HIV-infected individuals on suppressive ART (n=5) by continuous-flow leukopheresis. Isolation of resting CD4+ T cells and quantification of replication competent virus was performed as previously described (see S. Dandekar, et al. Current HIV/AIDS reports 4, 10-15 (2007)). […] Cultures were scored as positive if p24 was detected at day 15 and was increased in concentration at day 19. […]

## C/C=C/C(=O)[O-].[Na+] [Na-Cro, sodium crotonate]
  replication-competent HIV recovered (HIV reactivation, QVOA): four of the five participants
